Data reported in patent EP4667582A1, “FACTOR XA REAGENT” (Instrumentation Laboratory Company, priority 2024, dated 2025).
Structures can show the parent of a compound that is named as a salt.

How the values were obtained:
Assay type in all cases: biochemical
[1] = tested on: factor Xa; experiment: factor Xa chromogenic assay with guanidine derivatives (substrate S-2732, mAbs/min at 405 nm); details: for factor Xa inhibition: Fig. 4, dilutions in water, 6nkat/mL factor Xa, 20mM HEPES pH 7.5, 1.5 mM S-2732, ranking between compounds; for factor Xa activity: Fig. 3, activity plotted against guanidine derivative or NaCl concentration, 6 nkat/mL factor Xa, 20mM Hepes pH 7.5, 37°C, 1.5mM S-2732
Description: In this experiment, activity of factor Xa in the presence of guanidine sulfate and its derivatives (e.g., 1-methylguanidine sulfate, 1,1-dimethylguanidine sulfate, 1,1-diethylguanidine, N-benzyl, N-methylguanidine sulfate, 1,1,3,3-tetramethylgunidine and 1,1-dimethylbiguanide HCl) was evaluated using a chromogenic assay. In the experiment, each guanidine derivative was dissolved in deionized (DI) water to a final concentration of 100mM. A number of such guanidine dilutions were prepared. Guanidine derivative levels in the solutions were tested in triplicate at 37°C as follows: 40µL (microliters) of each guanidine derivative level was incubated for 20 seconds (s) to 60s before 40µL of 6 nkat/mL factor Xa in 20mM Hepes pH 7.5 buffer was added to the reaction. After an incubation period of 150s to 180s, 100µL of 1.5mM factor Xa chromogenic substrate S-2732™ was added to the reaction and milli-absorbance per minute (mAbs/min) at 405nm (nanometers) was measured after a 20s delay.
In this experiment, the effects of guanidine sulfate and the guanidine derivatives: 1-methylguanidine sulfate, 1,1-dimethylguanidine sulfate, 1,1-diethylguanidine, and N-benzyl, N-methylguanidine sulfate were analyzed using a chromogenic assay. A number of dilutions were prepared in water with guanidine or a guanidine derivative of the type described herein. 40µL of each of the guanidine or guanidine derivatives were mixed for 20s to 60s with 40µL of 6nkat/mL factor Xa diluted in 20mM HEPES, pH 7.5 buffer. After an incubation period of 150s to 180s, 100µL of the factor Xa chromogenic substrate S-2732™ (1.5 mM) was added to each of the guanidine and factor Xa mixtures and each mixture was chromogenically measured at 405nm mAbs/min after a 20s delay.

[2] = tested on: factor Xa; experiment: factor Xa substrate turnover rates at a range of factor Xa levels, 1,1-dimethylguanidine compared to NaCl; details: Fig. 6; 22mM 1,1-dimethylguanidine compared to 33 mM NaCl; 37°C, 1.5mM S-2732
Description: Guanidine derivatives modulate factor Xa enzymatic activity in a reaction, as explained previously, thereby slowing-down the reaction. As a result, greater amounts and/or concentrations of factor Xa can be used in a reaction when a guanidine derivative is incorporated into the reaction. In this experiment, factor Xa levels were tested in a reaction in triplicate at 37°C as follows: 40µL of factor Xa was incubated for 20s to 60s before 40µL of 100mM 1,1-dimethylguanidine or 150mM NaCl in water was added to the reaction. After an incubation period of 150s to 180s, 100µL of 1.5mM factor Xa chromogenic substrate S-2732™ was added to the reaction and mAbs/min at 405 nm was measured after a 20s delay. In Fig. 6, substrate turnover rates (e.g., coloring of the substrate) in the presence of 22mM 1,1-dimethylguanidine 601 were compared to substrate turnover rates in the presence of 33 mM NaCl 602. As evident from Fig. 6, greater amounts and/or concentrations of factor Xa can be added to the reaction in the presence of 1,1-dimethylguanidine to produce the same substrate turnover rates relative to NaCl. […] Greater amounts and/or concentrations of factor Xa facilitate detection of factor Xa inhibitors or reversal of such inhibitors in an assay, as noted previously.

[3] = tested on: factor Xa; experiment: factor Xa chromogenic activity in plasma sample containing dimethylguanidine (9:1 sample to factor Xa ratio); details: Fig. 7, 50mM compared to 25mM dimethylguanidine, 1.5 mM S-2732, 37°C
Description: In this experiment, 180µL of a plasma sample containing dimethylguanidine (DMG) and 1.5 mM substrate S-2732™ were mixed with 20µL of factor Xa (a 9:1 sample to factor Xa ratio). The activity of factor Xa was determined at 37°C based on chromogenic activity of the substrate. The activity of factor Xa linearly correlates with the factor Xa concentration in the presence of dimethylguanidine. […] Thus, increasing the amount of dimethylguanidine in a sample reduces a rate of the reaction. In some implementations, dimethylguanidine can be added to a reaction at a concentration of up to about 500mM.

Row | Compound | factor Xa inhibition [1] | factor Xa activity [1] | also measured
1 | CCN(CC)C(=N)N.O=S(=O)(O)O [1,1-diethylguanidine sulfate] | largest extent of factor Xa inhibition | – | –
2 | CN(C)C(=N)NC(=N)N [1,1-dimethyl-biguanide, reference compound] | – | modulate factor Xa dose-dependently, although less than 1-methylated guanidine sulfate | –
3 | CN(C)C(=N)N.O=S(=O)(O)O [1,1-dimethylguanidine sulfate] | largest extent of factor Xa inhibition | – | –
4 | CN(C)C(=N)N [1,1-dimethylguanidine] | – | – | substrate turnover rates [2]: the reaction has been slowed-down; rate of the reaction (activity of factor Xa) [3]: slows reaction of the factor Xa in a sample greater than 25mM
5 | CNC(=N)N [1-methylguanidine sulfate] | reduced factor Xa inhibition as compared to the factor Xa inhibition of mixtures containing dialkylated guanidine derivatives | modulates factor Xa dose-dependently | –
6 | CN(Cc1ccccc1)C(=N)N.O=S(=O)(O)O [N-benzyl N-methylguanidine sulfate] | reduced factor Xa inhibition as compared to the factor Xa inhibition of mixtures containing dialkylated guanidine derivatives | – | –
7 | N=C(N)N [guanidine sulfate] | least amount of reduction in factor Xa inhibition | modulate factor Xa dose-dependently, although less than 1-methylated guanidine sulfate | –
8 | NaCl [reference compound] | – | activates factor Xa activity | –
